According to the NIST ThermoML archive (doi:10.1016/j.jct.2018.02.022):
Values joined by “and” are separate entries in the source; they are usually repeats but may differ in a detail not shown here. Equal entries are not always repeated.

Test: xn = mol fraction of the nth substance listed
Details: 298.15 K, 92.3 kPa, Liquid; for viscosity: Concentric cylinders viscometry; for speed of sound: Frequency=3 MHz, Single path-length method; for mass density: Vibrating tube method

CCO [ethanol] + O
Details | mass density | speed of sound [m/s] | viscosity [mPa·s]
x1 = 0.0024 | 995.871 kg/m3 | 1501.5 | –
x1 = 0.0201 | 988.31 kg/m3 | – | 1.098
x1 = 0.0202 | 988.159 kg/m3 | 1532.7 | –
x1 = 0.0295 | 984.669 kg/m3 | 1548.2 | –
x1 = 0.0366 | 982.196 kg/m3 | 1559.6 | –
x1 = 0.0408 | 980.85 kg/m3 | – | 1.336
x1 = 0.0497 | 977.99 kg/m3 | – | 1.432
x1 = 0.0513 | 977.287 kg/m3 | 1581.3 | –
x1 = 0.06 | 974.31 kg/m3 and 974.729 kg/m3 | 1592.1 | 1.551
x1 = 0.0707 | 971.631 kg/m3 | 1603.2 | –
x1 = 0.0796 | 969.17 kg/m3 | – | 1.748
x1 = 0.0801 | 968.969 kg/m3 | 1610.7 | –
x1 = 0.0904 | 966.039 kg/m3 | 1616.4 | –
x1 = 0.0997 | 963.419 kg/m3 | 1619 | –
x1 = 0.1004 | 961.4 kg/m3 | – | 1.947
x1 = 0.1294 | 954.963 kg/m3 | 1613.3 | –
x1 = 0.1497 | 948.951 kg/m3 | 1600.1 | –
x1 = 0.1499 | 948.9 kg/m3 | – | 2.242
x1 = 0.1984 | 931.84 kg/m3 | – | 2.371
x1 = 0.2008 | 933.41 kg/m3 | 1553.7 | –
x1 = 0.2499 | 918.95 kg/m3 | – | 2.429
x1 = 0.2503 | 918.708 kg/m3 | 1507 | –
x1 = 0.2998 | 904.858 kg/m3 | 1464.5 | –
x1 = 0.3016 | 904.86 kg/m3 | – | 2.339
x1 = 0.3499 | 892.28 kg/m3 | – | 2.263
x1 = 0.3507 | 891.711 kg/m3 | 1426.2 | –
x1 = 0.399 | 880.34 kg/m3 | – | 2.17
x1 = 0.3992 | 880.239 kg/m3 | 1394.2 | –
x1 = 0.4495 | 869.34 kg/m3 | – | 2.066
x1 = 0.4514 | 869.012 kg/m3 | 1363.9 | –
x1 = 0.4989 | 860.04 kg/m3 | – | 1.956
x1 = 0.5002 | 858.963 kg/m3 | 1337.9 | –
x1 = 0.5494 | 849.801 kg/m3 | 1314.5 | –
x1 = 0.5495 | 850.72 kg/m3 | – | 1.88
x1 = 0.6018 | 840.665 kg/m3 | 1291.5 | –
x1 = 0.6067 | 840.19 kg/m3 | – | 1.744
x1 = 0.6503 | 832.95 kg/m3 and 832.839 kg/m3 | 1271.8 | 1.659
x1 = 0.6956 | 826.05 kg/m3 | – | 1.572
x1 = 0.7006 | 825.07 kg/m3 | 1252.3 | –
x1 = 0.7355 | 819.907 kg/m3 | 1239.1 | –
x1 = 0.75 | 818.03 kg/m3 | – | 1.483
x1 = 0.7843 | 813.49 kg/m3 | – | 1.43
x1 = 0.7965 | 811.475 kg/m3 | 1217 | –
x1 = 0.8433 | 805.219 kg/m3 | 1200.2 | –
x1 = 0.8475 | 805.63 kg/m3 | – | 1.342
x1 = 0.8864 | 799.93 kg/m3 | – | 1.271
x1 = 0.892 | 798.808 kg/m3 | 1182.5 | –
x1 = 0.9093 | 796.615 kg/m3 | 1176.3 | –
x1 = 0.9207 | 795.193 kg/m3 | 1172.3 | –
x1 = 0.929 | 794.19 kg/m3 | – | 1.204
x1 = 0.9307 | 793.91 kg/m3 | 1168.6 | –
x1 = 0.9398 | 792.821 kg/m3 | 1165.4 | –
x1 = 0.9483 | 791.735 kg/m3 | 1162.3 | –
x1 = 0.9603 | 790.291 kg/m3 | 1158.1 | –
x1 = 0.9702 | 789.073 kg/m3 | 1154.5 | –
x1 = 0.9801 | 787.741 kg/m3 | 1151.3 | –
x1 = 0.9895 | 786.779 kg/m3 | 1147.8 | –
x1 = 1 | 785.26 kg/m3 | 1143.5 | 1.091
